Assay results reported in PubChem BioAssay AID504868 (The Scripps Research Institute Molecular Screening Center, 2011).
“And” between values parts separate entries of the source, which are not always exact repeats. Equal entries are not always repeated. The source made the active and inactive calls. How the calls were made is not given here.

Biological target: Neuropeptides B/W receptor type 1 (Homo sapiens) (UniProt P48145)
Test: antagonism of neuropeptide B/W receptor GPR7 – cell-based, fluorescence, dose response, set 2, late-stage follow-up (AID 504868)
Conditions: GPR7-expressing cells, fluorescence antagonist readout

Row | Compound | IC50 (run 1) | IC50 (run 2) | IC50 (run 3)
1 | COc1ccc(Oc2c(C)cnn(-c3ccc(C(C)C)cc3)c2=O)cc1 | 7480 nM | 7220 nM | 
2 | COc1ccc(Oc2c(C3CC3)cnn(-c3ccc(C)cc3)c2=O)cc1 | 6220 nM | 4000 nM | 
3 | COc1ccc(Oc2c(Cl)cnn(-c3ccc(C)cc3)c2=O)cc1 | 1010 nM and 2230 nM | 741 nM and 1420 nM | 1350 nM
4 | COc1ccc(Oc2c(-c3ccccc3)cnn(-c3ccc(C)cc3)c2=O)cc1 | > 20000 nM (inactive) | > 20000 nM (inactive) | > 20000 nM (inactive)

Continued, values first:

Row | IC50 (run 1) | IC50 (run 2) | IC50 (run 3) | Compound
5 | 2160 nM | 1050 nM | 1800 nM | Cc1ccc(-n2ncc(Cl)c(Oc3ccc(C(F)(F)F)cc3)c2=O)cc1
6 | 2260 nM | 844 nM | 1710 nM | Cc1ccc(-n2ncc(Cl)c(Oc3ccc(CO)cc3)c2=O)cc1
7 | 878 nM | 518 nM | 836 nM | Cc1ccc(-n2ncc(Cl)c(Oc3ccc(OC(F)(F)F)cc3)c2=O)cc1
8 | 2730 nM | 1880 nM |  | COC(=O)c1cnn(-c2ccc(C(C)C)cc2)c(=O)c1Oc1ccc(OC)cc1
9 | 6200 nM | 4410 nM |  | COc1ccc(Oc2c(C=O)cnn(-c3ccc(C(C)C)cc3)c2=O)cc1
10 | 4190 nM | 2410 nM |  | COc1ccc(Oc2c(C#N)cnn(-c3ccc(C(C)C)cc3)c2=O)cc1
